Experimental data reported in publication PMC11645267, “Novel pharmacologic inhibition of lysine-specific demethylase 1 as a potential therapeutic for glioblastoma” (Cancer Gene Therapy, 2024).
Read-outs that look alike come from different tables or passages of the source.

Key:
[1] = Pharmacokinetic analysis, plasma and brain levels; format: in vivo; details: male, Crl:CD1 (ICR), mouse, ip, ICR mice, n = 3
Description: Male Crl:CD1 (ICR) mice from […], Japan (8 weeks old, n = 3) received a single intraperitoneal injection of S2172 at 30 mg/kg in 5 mL/kg of 15% DMSO/17.5% Cremophor EL/8.75% Ethanol/8.75% HCO-40/50% PBS. Serial blood sampling was conducted from the jugular vein at 0.25, 0.5, 1, 2, 4, and 6 hr time points. At 0.5 h after injection, mice were euthanized, underwent hemoperfusion, and their brain tissue was harvested, homogenized and diluted 4-fold with water. Blood and brain homogenate samples were treated with acetonitrile and centrifuged. The supernatant solution was used for drug level measurement by LC/MS/MS. Pharmacokinetic parameters were calculated using Moment method analysis.

GSC1228 cells = test: ChIP-seq analysis of histone modifications; format: cell-based, human; details: GSC1228, 5 μM, versus DMSO
Description: Cells (1 × 10^6) were treated with 1% formaldehyde for 8 min to crosslink histones to DNA. After washing with cold PBS, cell pellets were lysed with lysis buffer (10 mM Tris-HCl, 0.25% Triton X-100, 10 mM EDTA, and 0.1 M NaCl). Cell nuclei were collected after centrifugation and re-suspended in SDS lysis buffer (1% SDS, 150 mM NaCl, 50 mM HEPES-KOH, 2 mM EDTA, 1% Triton X-100, and 0.1% sodium deoxycholate). Chromatin was sonicated using Covaris S220 (Covaris, Moburn, MA, USA). Lysates were incubated overnight with 50 μL of Dynabeads Protein G (Thermo Fisher Scientific) which were pre-coated with 4 μL of anti-H3K4me1 antibody (ab8895, Abcam, Cambridge, UK), 3 μL of anti-H3K4me2 antibody (#39141, Active Motif), 2.5 μL of anti-H3K4me3 antibody (#39159, Active Motif), 4 μL of anti-H3K9me2 antibody (ab1220, Abcam). The beads were washed and protein-DNA complexes were eluted with elution buffer (1% SDS, 10 mM EDTA, and 50 mM Tris-HCl) and then treated with RNase for 2 h at 37°C followed by proteinase K treatment overnight. DNA was extracted by the phenol/chloroform method, ethanol-precipitated and re-suspended in 0.1 × TE buffer. 10% of the lysate was treated with RNase and proteinase K and de-crosslinked as input samples.
ChIP DNA (n = 2 for each antibody in each condition) was used to make sequence libraries using NEBNext Ultra II DNA library Prep kit for the Illumina (New England Biolabs, Ipswich, MA, USA). Library quality was checked using the Agilent Bioanalyzer 2100 (Agilent Technologies, Santa Clara, CA, USA) and then libraries were run on an Illumina Hiseq XTen (Illumina, San Diego, CA, USA).
ChIP-seq clean reads were obtained from raw reads by the removal of adaptors and low-quality reads. The clean reads were aligned to the human genome (hg38) using Bowtie2 (version 2.4.2). The levels of histone modification at gene promoters were estimated by counting the numbers of reads mapped within a 2-kb region around the transcriptional start site using MACS2 [30] and HOMER [31]. Differential analysis of peaks and generation of heatmap were performed using BEDtools v2.30.0 [32]. HOMER was used to annotate ChIP-seq peaks for genomic location and link these peaks to nearby genes. TF binding motif analysis was performed using HOMER. BEDtools was used to obtain overlap peaks with super-enhancers and H3K4me2 peaks. Furthermore, we used our deposited GSC316 H3K27ac ChIP-seq data (GSE178471) and identified super-enhancers by the Rank Ordering of Super Enhancer (ROSE) algorithm. From this analysis, we identified 672 super-enhancers.
To precisely evaluate the effects of S2172 on histone modifications at a genome-wide scale, we performed ChIP-seq analysis in GSC1228 cells treated with either DMSO or S2172. […]

GSC cells = test: RNA-seq analysis of enhancer/super-enhancer related genes; format: cell-based, human; details: 5 μM, 96 h, relative to DMSO
Description: GSC cells treated with either DMSO (n = 4) or S2172 (5 μM, n = 4) for 96 h and total RNA was isolated with RNeasy mini kit (Qiagen). The RNA purity was determined using Agilent Tape Station (Agilent Technologies). Illumina TruSeq RNA sample preparation was conducted and the samples were run on an Illumina Hiseq XTen (Illumina). RNA-seq was aligned using HISAT2 under default setting to Homo Sapience hg38 [35]. TPM were generated using StringTie and differential expression analysis were performed using DESeq2 [37].
RNA-seq analysis was conducted to examine gene expression changes associated with super-enhancers/enhancers. Among the genes with de novo H3K4me2 modification, the average log2 fold changes (S2172 treatment relative to DMSO treatment) were −0.12 ± 0.03 for super-enhancer-related genes and −0.01 ± 0.01 for typical enhancer-related genes (P = 0.0004) (Supplementary Fig. S6B). In contrast, among the genes with increased H3K4me2 modification, the average log2 fold changes were −0.04 ± 0.01 for super-enhancer-related genes and −0.07 ± 001 for typical enhancer-related genes (P = 0.028) (Supplementary Fig. S6C).

[2] = plasma, single intraperitoneal injection 30 mg/kg

## NC1CCC(NC2CC2c2cc(F)cc(F)c2OCc2ccccc2)CC1 (stereo not drawn) [S2172]
[1]; brain, single intraperitoneal injection 30 mg/kg, read-out: Brain concentration at 0.5 hr
  concentration at 0.5 hr: 1520 ± 140 nM
[1]; brain/plasma, 0.5 hr after single intraperitoneal injection 30 mg/kg, read-out: Brain/plasma ratio
  Kp at 0.5 h: 2.06 ± 0.39
[1]; [2]
  Cmax: 1200 ± 120 nM
  Tmax: 0.25 h
  half-life: 4.98 ± 1.64 h
[1]; plasma, single intraperitoneal injection 30 mg/kg, read-out: AUC0–6 h
  AUC(0-t): 1.11 ± 0.08 µM·h
[1]; plasma, single intraperitoneal injection 30 mg/kg, read-out: Plasma concentration at 0.5 hr
  concentration at 0.5 hr: 750 ± 90 nM
GSC1228 cells
  de novo H3K4me3 regions after treatment: 2582 regions
  new H3K4me2 regions (de novo regions) after treatment: 20,085 regions
  regions already modified by H3K4me2 with increased H3K4me2 after treatment: 25,326 regions
  regions from which H3K4me2 was lost after treatment: 5788 regions
GSC cells
  average log2 fold change of expression, super-enhancer-related genes with de novo H3K4me2: −0.12 ± 0.03
  average log2 fold change of expression, super-enhancer-related genes with increased H3K4me2: −0.04 ± 0.01
  average log2 fold change of expression, typical enhancer-related genes with de novo H3K4me2: −0.01 ± 0.01
  average log2 fold change of expression, typical enhancer-related genes with increased H3K4me2: −0.07 ± 001
